According to patent US4387105A, “Methods of treating atherosclerosis with dialkylureas and dialkylthioureas” (priority 1982, dated 1983):

How the values were obtained:
cholesterol absorption [1] = conditions: po, 0.03 % of diet, 336 h
Protocol: Inhibition of cholesterol absorption was determined by feeding male Sprague-Dawley rats, weighing 150-170 g., a 1% cholesterol:0.5% cholic acid diet for 2 weeks. The diet also contained compounds being tested at a dose of 0.03% of the diet. Control rats were fed the same diet without any compound. At the end of the test the rats were sacrificed by decapitation. […] Livers are removed, a 0.4 g sample is taken from the center of the large lobe, and the sample is subjected to saponification using 25% saturated potassium hydroxide in ethanol. The resulting neutral sterols are extracted with petroleum ether and extract analyzed for cholesterol. The effectiveness of the compound in inhibiting cholesterol absorption is measured by the lowering of either serum cholesterol or liver cholesterol relative the values for control rats.

cholesterol absorption [2] = assay: Inhibition of cholesterol absorption in cholesterol/cholic acid fed rats given [4-14C] cholesterol by gavage (fecal 14C sterols); assay type: in vivo, male Sprague-Dawley rats; parameters: key: Active: A compound is considered active in inhibiting cholesterol absorption if it meets at least the first two criteria; conditions: 0.01% to 0.1% of the diet for 2 weeks; [4-14C] cholesterol plus 2 mg. test compound by gavage after 9 days; feces collected 5 days
Protocol: Inhibition of cholesterol absorption also was determined by feeding male Sprague-Dawley rats, weighing 150-170 g., a 1% cholesterol:0.5% cholic acid diet for 2 weeks. The diet also contained compounds being tested at doses of between 0.01% and 0.1% of the diet. After the rats had been on the test diet for 9 days each rat is given by gavage a sonicated mixture of [4-^14 C] cholesterol (6μCi), 0.2 ml. triolein, 10 mg. cholic acid, 20 mg. cholesterol and 2 mg. of test compound in 0.8 ml. of 10% non-fat dry milk. Feces were collected for each 24 hour period for the remaining 5 days during which the rats were maintained on the 1% cholesterol:0.5% cholic acid plus test compound diet. Fecal ^14 C-neutral sterols were extracted with petroleum ether from saponified feces by the method of Grundy, S. M., et al., J. Lipid Res., 6, 397 (1965) and counted in a scintillation counter. Acidic sterols (bile acids) were extracted by acidifying the saponified feces and extracting in chloroform:methanol (2:1) and counting the chloroform phase in a scintillation counter. Total extraction of radioactivity (98-100%) from saponified feces is realized by this procedure.
Radioactivity in liver and adrenals were determined by saponification and extraction into petroleum ether and counting by scintillation techniques. Total cholesterol in liver and adrenals was determined by the cholorimetric melthod of Zlatkis, A., et al., J. Lab. Clin. Med., 41, 486 (1953) on saponified-organic solvent extracted tissue prepared by the method of Trinder, P., Analyst, 77, 321 (1952). Serum cholesterol and triglycerides were assayed enzymaticaly by the method of Allain, C. C., et al., Clin. Chem., 20, 470 (1974) on a Centrifichem 400 Analyzer. ^14 C-Cholesterol in serum was determined by direct scintillation counting.
The effect of test compounds on cholesterol absorption was determined by:
1. increase in excreted ^14 C-neutral sterol
2. decrease in excreted ^14 C-acidic sterol
3. decrease in ^14 C-cholesterol or ^14 C-cholesteryl ester in the liver
4. decrease in ^14 C-cholesterol or ^14 C-cholesteryl ester in the serum. […]

[3] = target: T1, fatty acyl CoA:cholesterol acyl transferase (ACAT) (Rattus norvegicus, UniProt O70536); assay: Inhibition of ACAT in rat adrenal microsomal supernatant (14C-oleoyl CoA, cholesteryl ester counted); assay type: biochemical; parameters: dose or concentration left out as unconfirmed; conditions: vs control without compound
T1 construct: The supernatant, containing the microsomal fraction, served as the source of the cholesterol-esterifying enzyme; from tissue; host or cells: rat adrenals (1000 x g supernatant containing the microsomal fraction)
T1 sequence (O70536 1-545): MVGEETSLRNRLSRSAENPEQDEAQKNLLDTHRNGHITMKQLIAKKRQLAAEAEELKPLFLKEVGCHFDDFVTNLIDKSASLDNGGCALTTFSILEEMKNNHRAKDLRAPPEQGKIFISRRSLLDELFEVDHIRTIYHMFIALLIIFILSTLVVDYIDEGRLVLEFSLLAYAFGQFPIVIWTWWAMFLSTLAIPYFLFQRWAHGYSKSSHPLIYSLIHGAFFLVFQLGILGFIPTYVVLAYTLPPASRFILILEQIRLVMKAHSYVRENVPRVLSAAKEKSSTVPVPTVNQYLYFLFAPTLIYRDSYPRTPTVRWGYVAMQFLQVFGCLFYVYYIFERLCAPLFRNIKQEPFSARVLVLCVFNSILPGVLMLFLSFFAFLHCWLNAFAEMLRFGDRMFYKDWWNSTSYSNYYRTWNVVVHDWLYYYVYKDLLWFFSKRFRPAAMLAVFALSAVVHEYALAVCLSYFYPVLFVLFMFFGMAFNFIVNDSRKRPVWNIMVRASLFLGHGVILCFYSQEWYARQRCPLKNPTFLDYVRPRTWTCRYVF
Protocol: The compounds of the present invention were assayed for two types of biological activity related to their potential use as antiatherosclerotic agents. Compounds were tested in vitro for the ability to inhibit the enzyme fatty acyl CoA:cholesterol acyl transferase (ACAT) and in vivo for serum hypolipidemic activity as measured by their ability to inhibit lipid absorption in rats. The compounds were tested for their ability to inhibit ACAT according to the following procedure:
Rat adrenals were homogenized in 0.2 M monobasic potassium phosphate buffer, pH 7.4, and centrifuged at 1000 times gravity for 15 minutes at 5° C. The supernatant, containing the microsomal fraction, served as the source of the cholesterol-esterifying enzyme, fatty acyl CoA:cholesterol acyl transferase (ACAT). A mixture comprising 50 parts of adrenal supernatant, 10 parts of albumin (BSA) (50 mg./ml.), 3 parts of test compound (final concentration […].) and 500 parts of buffer was preincubated at 37° C. for 10 minutes. After treatment with 20 parts of oleoyl CoA(^14 C-[…]) the mixture was incubated at 37° C. for 10 minutes. A control mixture, omitting the test compound, was prepared and treated in the same manner. The lipids from the incubation mixture were extracted into an organic solvent and separated by thin-layer chromatography. The cholesteryl ester fraction was counted in a scintillation counter. This procedure is a modification of that described by Hashimoto, et al., Life Scie., 12 (Part II), 1-12 (1973).

| Structure (SMILES) | Result (inhibition of cholesterol absorption: lowering of either serum cholesterol or liver cholesterol relative to control rats) (cholesterol absorption [1]) | Result (inhibition of cholesterol absorption: increase in excreted 14C-neutral sterol and decrease in excreted 14C-acidic sterol) (cholesterol absorption [2]) | % Inhibition [3] [%] |
| --- | --- | --- | --- |
| CCCCN(CCCC)C(=O)Nc1ccc(C)cc1C [1,1-Di-(n-butyl)-3-(2,4-dimethylphenyl)urea] | Active | Active | 81.1 |
| CCCCN(CCCC)C(=O)Nc1cc(Cl)cc(Cl)c1 [1,1-Di-(n-butyl)-3-(3,5-dichlorophenyl)urea] | Active |  | 79.3 |
| CCCCN(CCCC)C(=O)Nc1ccccc1C [1,1-di-(n-butyl)-3-(2-methylphenyl)urea, 1,1-Di-(n-butyl)-3-(2-methylphenyl)urea] | Active |  | 61.8 |
| CCCCCCCCCCN(CCCCCCCCCC)C(=O)Nc1ccc(C)cc1C [1,1-Di-(n-decyl)-3-(2,4-dimethylphenyl)urea] | Active |  | 64.0 |
| CCCCCCCN(CCCCCCC)C(=O)Nc1ccc(C)cc1C [1,1-Di-(n-heptyl)-3-(2,4-dimethylphenyl)urea] |  |  | 91.1 |
| CCCCN(CCCC)C(=O)Nc1cccc(C(F)(F)F)c1 [1,1-Di-(n-butyl)-3-(3-trifluoromethylphenyl)urea] |  |  | 75.0 |
| CCCCN(CCCC)C(=O)Nc1ccc(Cl)cc1Cl [1,1-Di-(n-butyl)-3-(2,4-dichlorophenyl)urea] |  |  | 70.0 |
| CCCCCCN(CCCCCC)C(=O)Nc1ccc(C)cc1C [1,1-Di-(n-hexyl)-3-(2,4-dimethylphenyl)urea] | Active | Active | 95.1 |
| CCCCN(CCCC)C(=O)Nc1ccc(C)c(C)c1 [1,1-Di-(n-butyl)-3-(3,4-dimethylphenyl)urea] |  |  | 49.2 |
| CCCCN(CCCC)C(=O)Nc1ccccc1Cl [1,1-di-(n-butyl)-3-(2-chlorophenyl)urea, 1,1-Di-(n-butyl)-3-(2-chlorophenyl)urea] |  |  | 71.0 |
| CCCCN(CCCC)C(=O)Nc1cccc(OC)c1 [1,1-di-(n-butyl)-3-(3-methoxyphenyl)urea] |  |  | 77.1 |
| CCCCN(CCCC)C(=O)Nc1ccc(C(C)C)cc1 [1,1-Di-(n-butyl)-3-(4-isopropylphenyl)urea] |  |  | 76.4 |
| Cc1ccc(NC(=O)N(CCC(C)CC(C)(C)C)CCC(C)CC(C)(C)C)c(C)c1 (centres unmarked) [1,1-di-(3,5,5-trimethylhexyl)-3-(2,4-dimethylphenyl)urea] | Active |  | 90.4 |
| CCCCN(CCCC)C(=O)Nc1ccc([N+](=O)[O-])cc1Cl [1,1-Di-(n-butyl)-3-(2-chloro-4-nitrophenyl)urea] |  |  | 86.7 |
| CCCCC(CC)CN(CC(CC)CCCC)C(=O)Nc1ccc(C)cc1C (centres unmarked) [1,1-di-(2-ethylhexyl)-3-(2,4-dimethylphenyl)urea] |  |  | 86.2 |
| CCCCN(CCCC)C(=O)Nc1cccc(C)c1 [1,1-di-(n-butyl)-3-(3-methylphenyl)urea, 1,1-Di-(n-butyl)-3-(3-methylphenyl)urea] |  |  | 78.4 |

| Structure (SMILES) | Result (inhibition of cholesterol absorption: lowering of either serum cholesterol or liver cholesterol relative to control rats) (cholesterol absorption [1]) | Result (inhibition of cholesterol absorption: increase in excreted 14C-neutral sterol and decrease in excreted 14C-acidic sterol) (cholesterol absorption [2]) | % Inhibition [3] [%] |
| --- | --- | --- | --- |
| CCCCN(CCCC)C(=O)Nc1cc(C)cc(C)c1 [1,1-Di-(n-butyl)-3-(3,5-dimethylphenyl)urea] | Active |  | 83.5 |
| CCCCCCCCCCCCN(CCCCCCCCCCCC)C(=O)Nc1ccc(C)cc1C [1,1-Di-(n-dodecyl)-3-(2,4-dimethylphenyl)urea] |  |  | 26.3 |
| CCCCN(CCCC)C(=O)Nc1c(C)cc(C)cc1C [1,1-Di-(n-butyl)-3-(2,4,6-trimethylphenyl)urea] |  |  | 73.4 |
| CCCCN(CCCC)C(=O)Nc1cccc(C)c1C [1,1-Di-(n-butyl)-3-(2,3-dimethylphenyl)urea] |  |  | 87.6 |
| Cc1ccc(NC(=O)N(C2CCCC2)C2CCCC2)c(C)c1 [1,1-Di-(cyclopentyl)-3-(2,4-dimethylphenyl)urea] |  |  | 90.4 |
| CCC(C)N(C(=O)Nc1ccc(C)cc1C)C(C)CC (centres unmarked) [1,1-Di-(sec-butyl)-3-(2,4-dimethylphenyl)urea] |  |  | 78.1 |
| Cc1ccc(NC(=O)N(CCC(C)C)CCC(C)C)c(C)c1 [1,1-Di-(n-isopentyl)-3-(2,4-dimethylphenyl)urea] | Active |  | 88.7 |
| CCCCN(CCCC)C(=O)Nc1cccc(Cl)c1C [1,1-Di-(n-butyl)-3-(3-chloro-2-methylphenyl)urea] | Active |  | 80.2 |
| CCCCN(CCCC)C(=O)Nc1c(C)cccc1C [1,1-Di-(n-butyl)-3-(2,6-dimethylphenyl)urea] |  |  | 85.3 |
| CCCCc1ccc(NC(=O)N(CCCC)CCCC)cc1 [1,1-di-(n-butyl)-3-(4-n-butylphenyl)urea, 1,1-Di-(n-butyl)-3-(4-n-butylphenyl)urea] | Active |  | 93.5 |
| CCCCCCCCN(CCCCCCCC)C(=O)Nc1ccc(C)cc1C [1,1-Di-(n-octyl)-3-(2,4-dimethylphenyl)urea] | Active |  | 88.6 |
| CCCCN(CCCC)C(=O)Nc1ccc(OC)cc1 [1,1-di-(n-butyl)-3-(4-methoxyphenyl)urea, 1,1-Di-(n-butyl)-3-(4-methoxyphenyl)urea] |  |  | 58.7 |
| CCCCCN(CCCCC)C(=O)Nc1ccc(C)cc1C [1,1-Di-(n-pentyl)-3-(2,4-dimethylphenyl)urea] | Active | Active | 90.3 |
| CCCCCCCCCCCN(CCCCCCCCCCC)C(=O)Nc1ccc(C)cc1C [1,1-Di-(n-undecyl)-3-(2,4-dimethylphenyl)urea] |  |  | 48.9 |
| CCCCN(CCCC)C(=O)Nc1cccc(C(C)=O)c1 [1,1-di-(n-butyl)-3-(3-acetylphenyl)urea, 1,1-Di-(n-butyl)-3-(3-acetylphenyl)urea] |  |  | 50.9 |
| CCCCN(CCCC)C(=O)Nc1ccc(C)c(Cl)c1 [1,1-Di-(n-butyl)-3-(3-chloro-4-methylphenyl)urea] |  |  | 91.2 |
